Assay results: patent US12514928B2, “Herboxidiene antibody-drug conjugates and methods of use” (Eisai R&D Management Co., Ltd., priority 2018, dated 2026)

Experiments:
Ad2.1 = test: In vitro splicing (IVS) assay, qPCR-IVS-ATS, Ad2.1 substrate, HELA.2; assay type: biochemical; conditions: payload, read-out: qPCR-IVS-ATS GMean IC50 (nM) Ad2.1 HELA.2
Ad2.2 pre-mRNA = test: In vitro splicing (IVS) assay with HeLa nuclear extract, RT-qPCR of spliced product; assay type: biochemical; conditions: payload, HELA.2, read-out: qPCR-IVS-ATS GMean IC50 (nM) Ad2.2 HELA.2
Method: 2.1 In Vitro Splicing (IVS)
To evaluate payload activity in a cell-free system, an in vitro splicing assay was performed. The payloads were incubated with nuclear extracts and pre-mRNA substrate minigenes.
HeLa nuclear extract preparation: HeLa S3 cell pellets were resuspended in hypotonic buffer (10 mM HEPES pH 7.9, 1.5 mM MgCl2, 10 mM KCl, 0.2 mM PMSF, 0.5 mM DTT) and the suspension was brought up to a total of 5 packed cell volume (PCV). After centrifugation, the supernatant was discarded, and the cells were brought up to 3 PCV with hypotonic buffer and incubated on ice for 10 min. Cells were lysed using a dounce homogenizer and then centrifuged. The supernatant was discarded, and the pellet was resuspended with […] packed nuclear volume (PNV) of low salt buffer (20 mM HEPES pH 7.9, 1.5 mM MgCl2, 20 mM KCl, 0.2 mM EDTA, 25% glycerol, 0.2 mM PMSF, 0.5 mM DTT), followed by 1/2 PNV of high salt buffer (same as low salt buffer except 1.4 M KCl). The nuclei were gently mixed for 30 min before centrifuging. The supernatant (nuclear extract) was then dialyzed into storage buffer (20 mM HEPES pH 7.9, 100 mM KCl, 0.2 mM EDTA, 20% glycerol, 0.2 mM PMSF, 0.5 mM DTT). Protein concentration was determined using NanoDrop 8000 UV-Vis spectrophotometer (ThermoFisher Scientific).
IVS: All Ad2-derived sequences (Pellizzoni et al. (1998) Cell 95(5):615-24) were cloned into pcDNA3.1(+) vector (Promega) using 5′ EcoRI and 3′ Xbal restriction sites. The plasmids were linearized using Xbal and used as DNA templates in in vitro transcription reactions. The FtzΔi intron-less plasmid (Luo and Reed (1999) 96(26):14937-42) was linearized using EcoRI. All RNAs were in vitro transcribed and then purified using MEGAScript T7 (Invitrogen) and MegaClear (Invitrogen) kits, respectively. For splicing reactions using Ad2 variant pre-mRNAs, […] were prepared using 8 μg nuclear extracts prepared from HeLa S3, 2 ng pre-mRNA, 0.2 ng FTZΔi, and varying concentrations of compounds or DMSO. After a 15 min pre-incubation at 30° C., 1 μL splicing activation buffer (0.5 mM ATP, 20 mM creatine phosphate, 1.6 mM MgCl2) was added, and the reactions were incubated for 90 min at 30° C. The reactions were then quenched with 13 μL DMSO, and 25 nL was used for RT-qPCR. RT-qPCR reactions were prepared using TaqMan RNA-to-CT 1-step kit (Life Technologies), RNA from splicing reactions, Ad2 (forward: […]; reverse: […]; probe: CTGTTGGGCTCGCGGTTG) and Ftz (forward: […]; reverse: […]; probe: […]) mRNA primer-probe sets. Prism 7 (Graphpad) was used for non-linear regression curve fitting of the formed spliced product and normalized to the control (DMSO) sample.

[1] = Chemical stability of ADC payload in Mcilvane buffer pH 5.5; assay type: physicochemical; conditions: payload 20 μM, pH 5.5, 37° C.; for half-life at 20 μM: McIlvaine (citrate-phosphate) buffer, read-out: Stability Mean Stability t½ pH 5.5 (converted); for Stability Mean Stability % pH 5.5 t 24 h: % remaining at 24 h
Method: 3.5.3 Chemical Stability of ADC Payload
Herboxidiene splicing modulators were incubated in Mcilvane (Citrate-Phosphate) buffer, pH 5.5 (Boston Bioproducts; #BB-2466) at a final concentration of 20 μM (less than 0.5% DMSO from stock solution). The herboxidiene splicing modulator solution and the internal standard were pipetted into 96-well plates, ran on UPLC (Waters Acquity H class), and analyzed for initial chromatographic signal (t=0). The column was a Waters UPLC HSS T3 1.8 μm 2.1×50 mm column (#186003538). A gradient of mobile phase A from 95% to 10% was employed over 1 min, where A was 0.1% formic acid in water and mobile phase B was 0.1% formic acid in acetonitrile (flow rate 0.9 mL/min). The remainder of the herboxidiene splicing modulator solution was kept in a plate shaker at 37° C. (Eppendorf ThermoMixer). Sample analyses by UPLC were repeated at 24, 72, and 96 hours post-incubation at 37° C. The area ratio response of the herboxidiene splicing modulator and internal standard was determined for three time points: time 0, day 1, and either day 3 or day 4. Time 0 was set to 100. The area ratio responses of the later time points were compared to time 0. Percent remaining was calculated as follows: (Area Ratio day X/Area Ratio time 0)*100=% remaining. The slope of the line was calculated in Excel comparing the log of % remaining and time point.

THP1.1 = test: Herboxidiene splicing modulator cell potency, CTGlo-ATS, THP1.1, 72 h; assay type: cell-based; conditions: for CTGIo-ATS GMean LD50 (nM) 72 h THP1.1 / CTGIo-ATS Mean MinResponse % 72 h THP1.1: payload; for GI50: read-out: CTGIo-ATS GMean GI50 (nM) 72 h THP1.1
NCIH1650.1 = test: Herboxidiene splicing modulator cell potency, CTGlo-ATS, NCIH1650.1, 72 h; assay type: cell-based; conditions: for CTGIo-ATS GMean LD50 (nM) 72 h NCIH1650.1 / CTGIo-ATS Mean MinResponse % 72 h NCIH1650.1: payload; for GI50: read-out: CTGIo-ATS GMean GI50 (nM) 72 h NCIH1650.1
[2] = Caco-2 permeability of ADC payload; assay type: in vitro ADME; conditions: human; for efflux ratio at 2 h, 10 μM: B-A/A-B, read-out: ER; for Papp A→B at 2 h, 10 μM / Papp B→A at 2 h, 10 μM: payload at 10 μM; for Papp A→B at 2 h, 10 μM: apical to basolateral, read-out: Permeability Mean Caco-2 A-B Perm; for Papp B→A at 2 h, 10 μM: head incomplete (column between A-B and ER)
Method: 3.5.2 Caco-2 Permeability of ADC Payload
Caco-2 cells were cultured for 21 days in transwell 24-well plates at 37° C., 95% humidity, 5% CO2. Integrity of cell monolayer was confirmed by TEER (transepithelial electrical resistance) and Lucifer yellow. Payloads were spiked in duplicate at 10 μM, separately, on both sides of the cell monolayer. Permeability rates from the apical to basolateral (A-B) direction and the basolateral to apical (B-A) direction were determined by sampling aliquots from both chambers immediately after treatment (t=0) and following incubation for 2 hours. Samples were protein precipitated with organic solvent containing internal standard and analyzed by LC-MS/MS (SCI EX; API 5500). The area ratio responses of payload/internal standard over time in both directions were used to generate permeability (cm/sec) values. Efflux ratio was calculated by dividing B-A/A-B. Control compounds for low and high permeability and efflux behaved as expected.

SF3b complex = SF3b complex (Homo sapiens, UniProt O75533+Q7RTV0); test: Payload binding to the SF3b complex (SF3B1 binding); conditions: SF3B1 (WT), HELA.2, read-out: SPA-ATS GMean IC50 (nM) SF3B1 (WT) HELA.2
Method: Exemplary herboxidiene spliceosome modulator payloads used in the preparation of ADCs were profiled. Payloads were evaluated for binding to the SF3b complex, in vitro splicing activity, and ability to inhibit cell growth.

[3] = in vivo; cited from earlier work

Compound | IC50 (Ad2.1) | IC50 (Ad2.2 pre-mRNA) | half-life at 20 μM [1] | Stability Mean Stability % pH 5.5 t 24 h [1] | CTGIo-ATS GMean LD50 (nM) 72 h THP1.1 (THP1.1) | CTGIo-ATS Mean MinResponse % 72 h THP1.1 (THP1.1) | GI50 (THP1.1) | CTGIo-ATS GMean LD50 (nM) 72 h NCIH1650.1 (NCIH1650.1) | CTGIo-ATS Mean MinResponse % 72 h NCIH1650.1 (NCIH1650.1) | GI50 (NCIH1650.1) | efflux ratio at 2 h, 10 μM [2] | Papp A→B at 2 h, 10 μM [2] | Papp B→A at 2 h, 10 μM [2] | IC50 (SF3b complex) | plasma half-life [3]
CO[C@H]([C@@H](C)[C@H]1O[C@]1(C)C[C@H](C)/C=C/C=C(\C)[C@H]1O[C@@H](CNC(=O)CCCCCOC(=O)N2CCNCC2)CC[C@@H]1C)[C@@H](C)O [Compound H5, 6-((((2R,5S,6S)-6-((S,2E,4E)-7-((2R,3R)-3-((2R,3R,4R)-4-hydroxy-3-methoxypentan-2-yl)-2-methyloxiran-2-yl)-6-methylhepta-2,4-dien-2-yl)-5-methyltetrahydro-2H-pyran-2-yl)methyl)amino)-6-oxohexyl piperazine-1-carboxylate] | 30.3 nM | 17.8 nM | > 168 h | >100% | 3.415 nM | −103.352% | 0.433 nM | >10000 nM | −25.308% | 0.407 nM | 22.7 | 1.04 ×10⁻⁶ cm/s | 23.6 ×10⁻⁶ cm/s | 12.9 nM | –
CO[C@H]([C@@H](C)[C@H]1O[C@]1(C)C[C@H](C)/C=C/C=C(\C)[C@H]1O[C@@H](CNC(=O)CCCCCOC(=O)N2CCCNCC2)CC[C@@H]1C)[C@@H](C)O [Compound H6, 6-((((2R,5S,6S)-6-((S,2E,4E)-7-((2R,3R)-3-((2R,3R,4R)-4-hydroxy-3-methoxypentan-2-yl)-2-methyloxiran-2-yl)-6-methylhepta-2,4-dien-2-yl)-5-methyltetrahydro-2H-pyran-2-yl)methyl)amino)-6-oxohexyl 1,4-diazepane-1-carboxylate] | 9.51 nM | 7.19 nM | – | – | 6.522 nM | −101.275% | 0.701 nM | 1.336 nM | 0.978% | 0.219 nM | – | 5.72 ×10⁻⁶ cm/s | – | – | –
CO[C@H]([C@@H](C)[C@H]1O[C@]1(C)C[C@H](C)/C=C/C=C(\C)[C@H]1O[C@@H](CNC(=O)CCOCCOC(=O)N2CCCNCC2)CC[C@@H]1C)[C@@H](C)O [Compound H9, 2-(3-((((2R,5S,6S)-6-((S,2E,4E)-7-((2R,3R)-3-((2R,3R,4R)-4-hydroxy-3-methoxypentan-2-yl)-2-methyloxiran-2-yl)-6-methylhepta-2,4-dien-2-yl)-5-methyltetrahydro-2H-pyran-2-yl)methyl)amino)-3-oxopropoxy)ethyl 1,4-diazepane-1-carboxylate] | 9.68 nM | 8.66 nM | – | – | 14.441 nM | −101.645% | 1.34 nM | 2.681 nM | 2.327% | 0.481 nM | – | 11.6 ×10⁻⁶ cm/s | – | – | –
Ipilimumab: fully human anti-CTLA4 antibody, IgG1 | – | – | – | – | – | – | – | – | – | – | – | – | – | – | 288 to 336 h
CO[C@H]([C@@H](C)[C@H]1O[C@]1(C)C[C@H](C)/C=C/C=C(\C)[C@H]1O[C@@H](CC(=O)O)C[C@@H](OC(=O)N2CCNCC2)[C@@H]1C)[C@@H](C)O [Compound H1, 2-((2R,4R,5S,6S)-6-((S,2E,4E)-7-((2R,3R)-3-((2R,3R,4R)-4-hydroxy-3-methoxypentan-2-yl)-2-methyloxiran-2-yl)-6-methylhepta-2,4-dien-2-yl)-5-methyl-4-((piperazine-1-carbonyl)oxy)tetrahydro-2H-pyran-2-yl)acetic acid] | 72.6 nM | 33.7 nM | 84 h | 79% | 697.273 nM | −84.238% | 114 nM | >10000 nM | 10.179% | 182 nM | 1.27 | 0.263 ×10⁻⁶ cm/s | 0.334 ×10⁻⁶ cm/s | 11.7 nM | –
CO[C@H]([C@@H](C)[C@H]1O[C@]1(C)C[C@H](C)/C=C/C=C(\C)[C@H]1O[C@@H](CC(=O)N[C@@H](CCCOC(=O)N2CCNCC2)C(=O)O)CC[C@@H]1C)[C@@H](C)O [Compound H4, (S)-2-(2-((2R,5S,6S)-6-((S,2E,4E)-7-((2R,3R)-3-((2R,3R,4R)-4-hydroxy-3-methoxypentan-2-yl)-2-methyloxiran-2-yl)-6-methylhepta-2,4-dien-2-yl)-5-methyltetrahydro-2H-pyran-2-yl)acetamido)-5-((piperazine-1-carbonyl)oxy)pentanoic acid] | 31.6 nM | 29.6 nM | – | – | 5337.399 nM | −40.902% | 649 nM | 2575.18 nM | 728.583% | 464 nM | – | 19.3 ×10⁻⁶ cm/s | – | 14.5 nM | –
